Drawing on patent US3995059A, “Pharmaceutical compositions containing fatty acid amide derivatives” (Sumitomo Chemical Company, Limited, priority 1966, dated 1976), this text covers Liver cholesterol and Serum cholesterol for 20 molecules.

Test [1] has as its system liver cholesterol. Briefly: Liver cholesterol (deposition of cholesterol and fat in the liver) of mice fed a cholesterol-rich diet (Table 1). The conditions noted are these: 0.2% in diet, oral, 8 to 12 days. The test is classed as in vivo.
Test [2] deals with total cholesterol value in the blood serum. Briefly: Total cholesterol in blood serum of mice fed a diet enriched with cholesterol and bile acids (Table 1). The test is classed as in vivo. As to conditions: 0.2% in diet, oral, 8 to 12 days. The procedure: The effectiveness of the compounds was tested by using mice fed on a specific diet which was enriched with cholesterol and bile acids. […] The amide compound as well was mixed with the specific diet in an amount of 0.2%, and continuously administered orally for 8 to 12 days. Then the total cholesterol value in the blood serum of the animals was evaluated.

The mark [3] stands for this setting: experiment [VIII], control 2652.

Turning to `CCCCC/C=C\C/C=C\CCCCCCCC(=O)NC(C)c1ccc(Br)cc1` (stereo not shown), in test [1] (experiment [III], control not given), the Liver cholesterol worked out at 1341 mg/100 g. This molecule also came in with a Serum cholesterol in test [2] (experiment [III], control 471) of 322 mg %.
In test [1] (experiment [IV], control 3145), `CCC(NC(=O)CCCCCCCCCCCCCCC(C)C)c1ccc(C(C)(C)C)cc1` (stereo not shown) gave a Liver cholesterol of 905 mg/100 g. Moreover, the Serum cholesterol in test [2] (experiment [IV], control 595) turned out to be 297 mg %.
For the molecule `CCCCC/C=C\C/C=C\CCCCCCCC(=O)NC(C)c1ccccc1[N+](=O)[O-]` (stereo not shown), in test [1] (setting [3]), the Liver cholesterol worked out at 1003 mg/100 g. This molecule also came in with a Serum cholesterol in test [2] (experiment [VIII], control 472) of 299 mg %.
In the same order, the values of `CCCCC/C=C\C/C=C\CCCCCCCC(=O)NC(C)c1cccc([N+](=O)[O-])c1` (stereo not shown) are 992 mg/100 g and 287 mg %.
In test [1] (setting [3]), `CCCCC/C=C\C/C=C\CCCCCCCC(=O)NC(CC)c1ccc([N+](=O)[O-])cc1` (stereo not shown) returned a Liver cholesterol of 980 mg/100 g. Moreover, in test [2] (experiment [VIII], control 472), the Serum cholesterol came to 331 mg %.
As to `CC/C=C\C/C=C\C/C=C\CCCCCCCC(=O)NC(CC)c1ccccc1[N+](=O)[O-]` (stereo not shown), in test [1] (setting [3]), the Liver cholesterol was determined as 1091 mg/100 g. In test [2] (experiment [VIII], control 472), this molecule came in with a Serum cholesterol of 300 mg %.
In the same order, the values of `CCCCCCCC/C=C\CCCCCCCC(=O)NC(C)c1ccccc1[N+](=O)[O-]` (stereo not shown) are 1113 mg/100 g and 309 mg %.
Regarding `CCCCCCCC/C=C\CCCCCCCC(=O)NC12CC3CC(CC(C3)C1)C2`, the Liver cholesterol in test [1] (experiment [IX], control 2200) came out at 1120 mg/100 g. Besides, the Serum cholesterol in test [2] (experiment [IX], control 336) is reported as 294 mg %.
Consider `CC/C=C\C/C=C\C/C=C\CCCCCCCC(=O)NC12CC3CC(CC(C3)C1)C2`, for which, in test [1] (experiment [IX], control 2200), the Liver cholesterol is on record as 750 mg/100 g. In test [2] (experiment [IX], control 336), the Serum cholesterol turned out to be 279 mg %.
Molecule `CCCCCCCC/C=C\CCCCCCCC(=O)N(C1CCCCC1)C1CCCCC1` displayed a Liver cholesterol in test [1] (experiment [XI], control 3451) of 929 mg/100 g. In addition, the Serum cholesterol in test [2] (experiment [XI], control 595) is 309 mg %.
Consider `CCCCCCCC/C=C\CCCCCCCC(=O)NC(C)c1ccc(CC)cc1` (racemic), for which the Liver cholesterol in test [1] (experiment [X], control 3293) turned out to be 1010 mg/100 g. The same molecule registered a Serum cholesterol in test [2] (experiment [X], control 554) of 304 mg %.
In test [1] (experiment [XI], control 3451), `CCCCCCCC/C=C\CCCCCCCC(=O)NC(C)c1ccc(Br)cc1` (racemic) gave a Liver cholesterol of 1039 mg/100 g. The molecule also gave a Serum cholesterol in test [2] (experiment [XI], control 595) of 299 mg %.
In the same order, the values of `CCCCCCCC/C=C\CCCCCCCC(=O)NC(CC)c1cccc([N+](=O)[O-])c1` (racemic) are 1342 mg/100 g and 362 mg %.
For `CCCCCCCC/C=C\CCCCCCCC(=O)NC(C)c1ccc(OC)cc1` (racemic), in that order: 1210 mg/100 g and 382 mg %.
For the molecule `CC/C=C\C/C=C\C/C=C\CCCCCCCC(=O)NC(C)c1cccc(Cl)c1` (racemic), the Liver cholesterol in test [1] (experiment [XI], control 3451) was found to be 1125 mg/100 g. This molecule also had a Serum cholesterol in test [2] (experiment [XI], control 595) of 309 mg %.
In the same order, the values of `CC/C=C\C/C=C\C/C=C\CCCCCCCC(=O)NC(CC)c1ccc(OC)cc1` (racemic) are 1450 mg/100 g and 325 mg %.
Turning to `CC(C)CCCCCCCCCCCCCCC(=O)NC(C)c1ccccc1` (single isomer, unassigned; (+)) [(+) N-(α-Methylbenzyl)-isostearamide], in test [1] (experiment [I], control 3585), the Liver cholesterol amounted to 761 mg/100 g. Also, the Serum cholesterol in test [2] (experiment [I], control 546) was 251 mg %.
As for `CCCCC/C=C\C/C=C\CCCCCCCC(=O)NC(C)c1ccccc1` (single isomer, unassigned; (+)) [(+) N-(α-Methylbenzyl)-linoleamide], the Liver cholesterol in test [1] (experiment [I], control 3585) was 764 mg/100 g. For the same molecule, the Serum cholesterol in test [2] (experiment [I], control 546) is 267 mg %.
Consider `CC/C=C\C/C=C\C/C=C\CCCCCCCC(=O)NC(C)c1ccccc1` (single isomer, unassigned; (+)) [(+) N-(α-Methylbenzyl)-linolenamide], for which the Liver cholesterol in test [1] (experiment [I], control 3585) is listed as 784 mg/100 g. Further, the Serum cholesterol in test [2] (experiment [I], control 546) amounted to 269 mg %.
Take `CCCCCCCC/C=C\CCCCCCCC(=O)NC(C)c1ccccc1` (single isomer, unassigned; (+)) [(+) N-(α-Methylbenzyl)-oleamide]: the Liver cholesterol in test [1] (experiment [I], control 3585) was 797 mg/100 g. In test [2] (experiment [I], control 546), this molecule displayed a Serum cholesterol of 288 mg %.
